Experimental data taken from US20190270778A1, “Cyclic Peptides As C5a Receptor Antagonists” (priority 2016, published 2019).
Read-outs that look alike come from different tables or passages of the source.

How the values were obtained:
[1] = molecular target: T1, C5a receptor (Homo sapiens, UniProt P21730); test: HWB oxidative burst assay (C5a-induced, luminol chemiluminescence); assay type: cell-based
T1 construct: endogenous in cells; host or cells: leukocytes/granulocytes in freshly drawn whole blood of healthy volunteers
T1 sequence (P21730 1-350): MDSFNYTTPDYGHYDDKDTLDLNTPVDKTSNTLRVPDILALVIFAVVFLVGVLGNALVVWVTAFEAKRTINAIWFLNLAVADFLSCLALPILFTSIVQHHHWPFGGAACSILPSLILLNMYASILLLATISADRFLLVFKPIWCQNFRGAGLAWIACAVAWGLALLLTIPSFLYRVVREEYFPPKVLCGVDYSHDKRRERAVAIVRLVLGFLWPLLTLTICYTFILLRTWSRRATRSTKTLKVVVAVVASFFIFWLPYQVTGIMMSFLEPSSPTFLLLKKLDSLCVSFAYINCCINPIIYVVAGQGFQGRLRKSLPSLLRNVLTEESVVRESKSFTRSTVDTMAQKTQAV
Description: Inhibition of oxidative burst activity was determined in HWB primed with TNF-α and stimulated with C5a. C5a-induced oxidative burst response (generation of reactive oxygen species) was then detected in the presence of luminol as a chemiluminescent signal.
On the day of assay, HWB was collected from a healthy, non-medicated volunteer into tubes containing 3.8% sodium citrate (final sodium citrate concentration in HWB is 0.38%) and stored in a 37° C. water bath until use (no longer than 60 minutes).
To start the assay, TNF-α was added to HWB to a final concentration of 1.0 nM and 68 μL of this HWB/TNF-α mix was transferred to each well of a 384-well white Optiplate (assay plate). 4.0 μL of various concentrations of test agent were then added to the assay plate and mixed twice gently by aspirating up and down. The assay plate was then placed on a thermoshaker (JITTERBUG-4) and incubated at 37° C. (without shaking). After 60 minutes, C5a (Complement Technology) prepared in luminol (Sigma) was added to the assay plate and mixed twice gently by aspirating up and down. The plate was then placed in a ViewLux 1430 Microplate Imager (Perkin Elmer). After 5 minutes, oxidative burst activity was determined with the ViewLux by measuring luminol-enhanced whole blood chemiluminescence. Final assay conditions were 1.5 mM HEPES pH 7.5, 0.015% BSA, 15% HBSS, 0.85 ng/mL TNFα, 1.0 mM Luminol, C5a 20 nM, 76.5% HWB, 0.15% DMSO and various concentrations of test agent.
The percent (%) effect at each concentration of test agent was then calculated based on and relative to the amount of signal that was produced by positive (i.e. full inhibition of C5a induced oxidative burst) and negative (i.e. completely uninhibited C5a induced oxidative burst) control wells contained within each assay plate. The concentration and % effect values for test agents were plotted and the concentration of test agent required for 50% effect (IC50) was determined with a four-parameter logistic dose response equation (BioBook; IDBS). Kb (nM) was then calculated (BioBook; IDBS) using the equation described by Leff and Dougal (TIPS 1993 14:110-112).

[2] = molecular target: T1, C5a receptor; test: HWB CD11b expression assay (C5a-challenged granulocytes, flow cytometry); assay type: cell-based
Description: HWB was collected from healthy, non-medicated volunteers into BD Vacutainer® blood collection tubes with K2EDTA as an anticoagulant. HWB was aliquoted (85 μL/well) in 96-well, deep-well, V-bottom plates and incubated at 37° C. for 30 minutes. Test compounds (5 μL/well) were added to HWB and incubated at 37° C. for 30 minutes. Anti-human CD11b antibody conjugated with APC (BD Biosciences) was added to HWB (5 μL/well) and incubated at 37° C. for additional 30 minutes. HWB was then challenged with human C5a (final 1 nM) for 30 minutes at 37° C. Samples were treated with warm 1× Lyse/Fix buffer (BD Biosciences) to terminate activation and further incubated at 37° C. for 20 minutes to lyse red blood cells. Assay plates were centrifuged at 300×g for 5 minutes, supernatant was aspirated, and cells were washed once with PBS containing 0.5% FBS. Washed cells were resuspended in PBS containing 0.5% FBS and subjected to flow cytometric analysis using an LSRFortessa equipped with a HTS plate loader (BD Biosciences). The granulocyte population was gated for analysis of MF of CD11b staining using FACSDiva version 6.2 (BD Biosciences). Data from 11 compound concentrations (singlicate at each concentration) was normalized as a percentage of control based on the formula:
% of Control=100×(A−B)/(C−B)
where A is MF from wells containing test compound and C5a, B is MF from wells without C5a (background MF from unstimulated samples) and C is MF from wells containing only C5a (maximum MF). Inhibition curves and IC50 values (test compound concentrations which produce 50% inhibition) were determined using the Prism version 5 software (GraphPad). HWB was also stimulated with 11 different concentrations of C5a to construct a responsive curve and to obtain EC50 value (the concentration of C5a that gives half-maximal response) and curve slope using the Prism version 5 software. Kb (nM) was then calculated using the equation described by Leff and Dougal (TIPS 1993 14:110-112).

[3] = amide bond, 18-membered ring
[4] = amide bond, 18-membered ring; remark: listed apart in the source
[5] = the molecule shown is the open-chain precursor

CC(=O)N[C@H]1C[C@H]2C(=O)N[C@H](C[C@H]3CC[C@@H](O)CC3)C(=O)N[C@@H](Cc3c[nH]c4ccccc34)C(=O)N[C@@H](CCCNC(=N)N)C(=O)NCCC[C@H](NC(=O)[C@H](Cc3ccccc3)NCC(=O)O)C(=O)N2C1 [Example 10, ((S)-1-(((3R,6S,9S,15S,19S,20aS)-6-((1H-indol-3-yl)methyl)-19-acetamido-9-(3-guanidinopropyl)-3-(((1s,4S)-4-hydroxycyclohexyl)methyl)-1,4,7,10,16-pentaoxoicosahydropyrrolo[1,2-a][1,4,7,10,13]pentaazacyclooctadecin-15-yl)amino)-1-oxo-3-phenylpropan-2-yl)glycine] gave a Kb [1] of 2.1 nM and a Kb [2] of 11.7 nM.
Compound N=C(N)NCCC[C@@H]1NC(=O)[C@H](Cc2c[nH]c3ccccc23)NC(=O)[C@@H](C[C@H]2CC[C@@H](O)CC2)NC(=O)[C@@H]2C[C@H](NCC(=O)O)CN2C(=O)[C@@H](NC(=O)[C@H](Cc2ccccc2)NCC(=O)O)CCCNC1=O [Example 12, ((31R,6S,9S,15S,19S,20aS)-6-((1H-indol-3-yl)methyl)-15-((S)-2-((carboxymethyl)amino)-3-phenylpropanamido)-9-(3-guanidinopropyl)-3-(((1s,4S)-4-hydroxycyclohexyl)methyl)-1,4,7,10,16-pentaoxoicosahydropyrrolo[1,2-a][1,4,7,10,13]pentaazacyclooctadecin-19-yl)glycine] has a Kb [1] of 1.3 nM and a Kb [2] of 32.6 nM.
For N=C(N)NCCC[C@@H]1NC(=O)[C@H](Cc2n[nH]c3ccccc23)NC(=O)[C@@H](C[C@H]2CC[C@@H](O)CC2)NC(=O)[C@@H]2C[C@@H](O)CN2C(=O)[C@@H](NC(=O)[C@H](Cc2ccccc2)NCC(=O)O)CCCNC1=O [Example 16, ((S)-1-(((31R,6S,9S,15S,19R,20aS)-6-((1H-indazol-3-yl)methyl)-9-(3-guanidinopropyl)-19-hydroxy-3-(((1s,4S)-4-hydroxycyclohexyl)methyl)-1,4,7,10,16-pentaoxoicosahydropyrrolo[1,2-a][1,4,7,10,13]pentaazacyclooctadecin-15-yl)amino)-1-oxo-3-phenylpropan-2-yl)glycine], the Kb [1] was 6.5 nM and the Kb [2] was 75.2 nM.
Work on CCc1ccc2c(C[C@@H]3NC(=O)[C@@H](C[C@H]4CC[C@@H](O)CC4)NC(=O)[C@@H]4C[C@@H](O)CN4C(=O)[C@@H](NC(=O)[C@H](Cc4ccccc4)NCC(=O)O)CCCNC(=O)[C@H](CCCNC(=N)N)NC3=O)c[nH]c2c1 [Example 17, ((S)-1-(((31R,6S,9S,15S,19R,20aS)-6-((6-ethyl-1H-indol-3-yl)methyl)-9-(3-guanidinopropyl)-19-hydroxy-3-(((1s,4S)-4-hydroxycyclohexyl)methyl)-1,4,7,10,16-pentaoxoicosahydropyrrolo[1,2-a][1,4,7,10,13]pentaazacyclooctadecin-15-yl)amino)-1-oxo-3-phenylpropan-2-yl)glycine] yielded a Kb [1] of 29.7 nM and a Kb [2] of 234 nM.
Work on “((31R,6S,9S,15S,19R,20aS)-6-((1H-indol-3-yl)methyl)-15-((S)-2-((carboxymethyl)amino)-3-phenylpropanamido)-9-(3-guanidinopropyl)-3-(((1s,4S)-4-hydroxycyclohexyl)methyl)-1,4,7,10,16-pentaoxoicosahydropyrrolo[1,2-a][1,4,7,10,13]pentaazacyclooctadecin-19-yl)glycine” yielded a ring closure, yield after HPLC ([3]; with chain assembly) of 19.4%.
“((S)-1-(((3R,6S,9S,15S,19R,20aS)-6-((1H-indol-3-yl)methyl)-19-acetamido-9-(3-guanidinopropyl)-3-(((1s,4S)-4-hydroxycyclohexyl)methyl)-1,4,7,10,16-pentaoxoicosahydropyrrolo[1,2-a][1,4,7,10,13]pentaazacyclooctadecin-15-yl)amino)-1-oxo-3-phenylpropan-2-yl)glycine” gave a ring closure, yield after HPLC ([3]; 2 steps) of 20%.
Work on “((S)-1-(((3R,6S,9S,15S,19R,20aS)-6-((1H-indol-3-yl)methyl)-19-amino-9-(3-guanidinopropyl)-3-(((1s,4S)-4-hydroxycyclohexyl)methyl)-1,4,7,10,16-pentaoxoicosahydropyrrolo[1,2-a][1,4,7,10,13]pentaazacyclooctadecin-15-yl)amino)-1-oxo-3-phenylpropan-2-yl)glycine” yielded a ring closure, yield after HPLC ([3]; 2 steps) of 6.6%.
Compound “H-Hyp(CH2CO2tBu)-dAla(3-(cis-4-hydroxycyclohexyl))-Trp(Boc)-Arg(Pbf)-Orn(Nα-[Boc-N(CH2CO2tBu)-Phe]; chain through Nδ)-OH?” has a ring closure, crude yield [4, 5] of 83%.
Compound “H-Hyp(tBu)-dAla(3-(cis-4-hydroxycyclohexyl))-Ala(3-(1-Boc-1H-pyrrolo[2,3-b]pyridin-3-yl))-Arg(Pbf)-Orn(Nα-[Boc-N(CH2CO2tBu)-Phe]; chain through Nδ)-OH” has a ring closure, crude yield [4, 5] of 100%.
With “H-Hyp(tBu)-dAla(3-(cis-4-hydroxycyclohexyl))-Ala(3-(4-methyl-1H-pyrazol-1-yl))-Arg(Pbf)-Orn(Nα-[Boc-N(CH2CO2tBu)-Phe]; chain through Nδ)-OH” the ring closure, crude yield [4, 5] was 48%.
In the case of “H-Hyp(tBu)-dAla(3-(cis-4-hydroxycyclohexyl))-Trp(Boc)-Arg(Pbf)-Orn(Nα-[N-(CH2CO2tBu)-MePhe]; chain through Nδ)-OH”, the ring closure, crude yield [4, 5] is reported as 100%.
In the case of “H-Pro((4S)-N(Boc)CH2CO2tBu)-dAla(3-(cis-4-hydroxycyclohexyl))-Trp(Boc)-Arg(Pbf)-Orn(Nα-[Boc-N(CH2CO2tBu)-Phe]; chain through Nδ)-OH”, the ring closure, crude yield [4, 5] is reported as 100%.
Work on “H-Pro((4S)-NHBoc)-dAla(3-(cis-4-hydroxycyclohexyl))-Trp(Boc)-Arg(Pbf)-Orn(Nα-[Boc-N(CH2CO2tBu)-Phe]; chain through Nδ)-OH” yielded a ring closure, crude yield ([4]; the molecule shown is the open-chain precursor, HATU/NMM, THF/DMF) of 100%.
With “H-Pro-dAla(3-(cis-4-hydroxycyclohexyl))-Ala(3-(1-Boc-1H-pyrrolo[2,3-b]pyridin-3-yl))-Arg(Pbf)-Orn(Nα-[Boc-N(CH2CO2tBu)-Phe]; chain through Nδ)-OH” the ring closure, crude yield [4, 5] was 100%.
For “tert-butyl-3-(((3R,6S,9S,15S,19R,20aS)-19-(tert-butoxy)-15-((tert-butoxycarbonyl)amino)-3-(((1s,4S)-4-hydroxycyclohexyl)methyl)-1,4,7,10,16-pentaoxo-9-(3-(3-((2,2,4,6,7-pentamethyl-2,3-dihydrobenzofuran-5-yl)sulfonyl)guanidino)propyl)icosahydropyrrolo[1,2-a][1,4,7,10,13]pentaazacyclooctadecin-6-yl)methyl)-1H-indole-1-carboxylate”, the ring closure, crude yield ([4]; HATU/NMM, THF/DMF 10:1, 13.1 mM) was 95.3%.
